The target of this assay is T1, human HPK1 (MAP4K1) (Homo sapiens, UniProt Q92918).
T1 construct: Recombinant human HPK1 kinase domain was obtained from ThermoFisher (Cat. #PV6357) and SignalChem (Cat. #M23-11G); purchased ThermoFisher; SignalChem PV6357; M23-11G
T1 sequence (Q92918 17-274 limits assumed): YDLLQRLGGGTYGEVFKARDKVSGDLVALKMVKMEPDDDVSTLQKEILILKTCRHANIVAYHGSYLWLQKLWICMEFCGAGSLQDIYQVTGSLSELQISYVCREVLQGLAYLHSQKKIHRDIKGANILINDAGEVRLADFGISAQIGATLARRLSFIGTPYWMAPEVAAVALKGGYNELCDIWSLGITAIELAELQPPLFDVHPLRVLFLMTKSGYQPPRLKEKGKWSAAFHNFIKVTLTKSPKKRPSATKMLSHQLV
Description: Biochemical assay for activity against HPK1 (ADP-Glo, MBP substrate). To be noted: recombinant human HPK1 kinase domain, 1 nM enzyme, ADP-Glo luminescence. The essentials:
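IC50s come from ADP-Glo luminescence after a 2 h room-temperature reaction phosphorylating MBP in the presence of ATP. Compound was first preincubated 15 min with 1 nM HPK1 kinase domain, human recombinant. Buffer: 50 mM HEPES pH 7.5, 150 mM NaCl, 3 mM TCEP, 10 mM MgCl2, 0.005% Tween-20, 0.01% BSA.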
In general terms: In ADP-Glo the light output rises with the ADP produced.

We go through 26 molecules from patent US11918582B2 (RAPT Therapeutics, Inc., priority 2021, dated 2024).

As usually defined, the IC50 is the concentration at which inhibition is half-maximal.

Structures can show the parent of a compound that is named as a salt.

With `COc1cc2c(cc1Nc1ncc3cnn(Cc4cc[nH]c(=O)c4)c3n1)CN(C)CC2` [Example 219, 4-[[6-[(6-methoxy-2-methyl-3,4-dihydro-1H-isoquinolin-7-yl)amino]pyrazolo[3,4-d]pyrimidin-1-yl]methyl]-1H-pyridin-2-one], the IC50 was less than 100 nM.

In the case of `COc1cc2c(cc1Nc1ncc3cnn(C[C@@H]4CCC[C@H]4C(N)=O)c3n1)CN(C)CC2` (racemic) [Example 159, racemic trans-2-[[6-[(6-methoxy-2-methyl-3,4-dihydro-1H-isoquinolin-7-yl)amino]pyrazolo[3,4-d]pyrimidin-1-yl]methyl]cyclopentanecarboxamide], the IC50 was less than 100 nM.

`COc1cc2c(cc1Nc1ncc3cnn(C[C@H]4CCCN(S(C)(=O)=O)C4)c3n1)CN(C)CC2` [Example 143, 6-methoxy-2-methyl-N-[1-[[(3R)-1-methylsulfonyl-3-piperidyl]methyl]pyrazolo[3,4-d]pyrimidin-6-yl]-3,4-dihydro-1H-isoquinolin-7-amine]: the IC50 was less than 100 nM.

For the molecule `COc1cc2c(cc1Nc1ncc3cnn(C[C@@H]4CCCN4C(C)=O)c3n1)CN(C[C@@H](C)O)CC2` [Example 195, 1-((S)-2-((6-((2-((R)-2-hydroxypropyl)-6-methoxy-1,2,3,4-tetrahydroisoquinolin-7-yl)amino)-1H-pyrazolo[3,4-d]pyrimidin-1-yl)methyl)pyrrolidin-1-yl)ethan-1-one], the concentration for half-maximal inhibition (IC50) was less than 100 nM.

Take `COc1cc2c(cc1Nc1ncc3cnn(CC[C@H](C)O)c3n1)CN(C)CC2` [Example 84, (S)-4-(6-((6-methoxy-2-methyl-1,2,3,4-tetrahydroisoquinolin-7-yl)amino)-1H-pyrazolo[3,4-d]pyrimidin-1-yl)butan-2-ol]: the IC50 is less than 100 nM.

As for `CN1CCc2c(cc(Nc3ncc4cnn([C@H]5CC[C@H](O)CC5)c4n3)cc2C(F)(F)F)C1` [Example 58, (1r,4r)-4-(6-((2-methyl-5-(trifluoromethyl)-1,2,3,4-tetrahydroisoquinolin-7-yl)amino)-1H-pyrazolo[3,4-d]pyrimidin-1-yl)cyclohexan-1-ol], the IC50 was less than 100 nM.

Regarding `CNC(=O)[C@H]1CC[C@H](n2ncc3cnc(Nc4cc5c(cc4OC)CCN(C)C5)nc32)C1` (racemic) [Example 43, rac-(1S,3S)-3-(6-((6-methoxy-2-methyl-1,2,3,4-tetrahydroisoquinolin-7-yl)amino)-1H-pyrazolo[3,4-d]pyrimidin-1-yl)-N-methylcyclopentane-1-carboxamide], the IC50 is less than 100 nM.

For `COc1cc2c(cc1Nc1ncc3cnn(C[C@@H]4CCCN4S(C)(=O)=O)c3n1)CN(C)CC2` [Example 111, (S)-6-methoxy-2-methyl-N-(1-((1-(methylsulfonyl)228yrrolidine-2-yl)methyl)-1H-pyrazolo[3,4-d]pyrimidin-6-yl)-1,2,3,4-tetrahydroisoquinolin-7-amine], the IC50 was less than 100 nM.

Take `COc1cc2c(cc1Nc1ncc3cnn(C[C@@H](C)NC(C)=O)c3n1)CN(C)CC2` [Example 97, N-[(1R)-2-[6-[(6-methoxy-2-methyl-3,4-dihydro-1H-isoquinolin-7-yl)amino]pyrazolo[3,4-d]pyrimidin-1-yl]-1-methyl-ethyl]acetamide]: the IC50 fell in the range of 100 to 250 nM.

Regarding `COc1cc2c(cc1Nc1ncc3cnn(C4CCN(S(C)(=O)=O)CC4)c3n1)CN(C)CC2` [Example 105, 6-methoxy-2-methyl-N-(1-(1-(methylsulfonyl)piperidin-4-yl)-1H-pyrazolo[3,4-d]pyrimidin-6-yl)-1,2,3,4-tetrahydroisoquinolin-7-amine], the IC50 is less than 100 nM.

For the molecule `COc1cc2c(cc1Nc1ncc3cnn(C[C@@H]4CCCN4C(C)=O)c3n1)C(C(F)(F)F)N(C)CC2` (stereo partly drawn) [Example 208, 1-((2S)-2-((6-((6-methoxy-2-methyl-1-(trifluoromethyl)-1,2,3,4-tetrahydroisoquinolin-7-yl)amino)-1H-pyrazolo[3,4-d]pyrimidin-1-yl)methyl)pyrrolidin-1-yl)ethan-1-one], the IC50 was less than 100 nM.

As for `CNC(=O)[C@@H]1CCC[C@@H](n2ncc3cnc(Nc4cc5c(cc4OC)CCN(C)C5)nc32)C1` [Example 53, (1R,3R)-3-(6-((6-methoxy-2-methyl-1,2,3,4-tetrahydroisoquinolin-7-yl)amino)-1H-pyrazolo[3,4-d]pyrimidin-1-yl)-N-methylcyclohexane-1-carboxamide], the IC50 is less than 100 nM.

With `C=CCCN1CCc2ccc(Nc3ncc4cnn(CCC=C)c4n3)cc2C1` [Example 18, 2-(but-3-en-1-yl)-N-(1-(but-3-en-1-yl)-1H-pyrazolo[3,4-d]pyrimidin-6-yl)-1,2,3,4-tetrahydroisoquinolin-7-amine], the IC50 was less than 100 nM.

For the molecule `COc1cc2c(cc1Nc1ncc3cnn([C@H]4CCC[C@H](C(N)=O)C4)c3n1)CN(C)CC2` [Example 31, (1S,3S)-3-(6-((6-methoxy-2-methyl-1,2,3,4-tetrahydroisoquinolin-7-yl)amino)-1H-pyrazolo[3,4-d]pyrimidin-1-yl)cyclohexane-1-carboxamide], the IC50 is less than 100 nM.

For the molecule `COc1cc2c(cc1Nc1ncc3cnn([C@H]4CCC[C@H](C(N)=O)C4)c3n1)CN(C)CC2` (stereo in doubt) [Example 40, (1S,3S)-3-(6-((6-methoxy-2-methyl-1,2,3,4-tetrahydroisoquinolin-7-yl)amino)-1H-pyrazolo[3,4-d]pyrimidin-1-yl)cyclohexane-1-carboxamide], the IC50 is less than 100 nM.

For the molecule `COc1cc2c(cc1Nc1ncc3cnn(C[C@@H]4CCCN4C(C)=O)c3n1)CN(CCO)CC2` [Example 194, (S)-1-(2-((6-((2-(2-hydroxyethyl)-6-methoxy-1,2,3,4-tetrahydroisoquinolin-7-yl)amino)-1H-pyrazolo[3,4-d]pyrimidin-1-yl)methyl)pyrrolidin-1-yl)ethan-1-one], the IC50 was less than 100 nM.

Regarding `CC(=O)N1CCC[C@H]1Cn1ncc2cnc(Nc3cc4c(cc3C)CCN(C)C4)nc21` [Example 183, (S)-1-(2-((6-((2,6-dimethyl-1,2,3,4-tetrahydroisoquinolin-7-yl)amino)-1H-pyrazolo[3,4-d]pyrimidin-1-yl)methyl)pyrrolidin-1-yl)ethan-1-one], the IC50 was less than 100 nM.

Consider `COc1cc2c(cc1Nc1ncc3cnn(C[C@H](C)NS(C)(=O)=O)c3n1)CN(C)CC2` [Example 94, N-[(1S)-2-[6-[(6-methoxy-2-methyl-3,4-dihydro-1H-isoquinolin-7-yl]amino]pyrazolo[3,4-d]pyrimidin-1-yl]-1-methyl-ethyl]methanesulfonamide], for which the IC50 lay in the range of 100 to 250 nM.

As for `COc1cc2c(cc1Nc1ncc3cnn(C[C@@H]4C[C@@H](F)CN4C(C)=O)c3n1)CN(C)CC2` [Example 145, 1-[(2S,4R)-4-fluoro-2-[[6-[(6-methoxy-2-methyl-3,4-dihydro-1H-isoquinolin-7-yl)amino]pyrazolo[3,4-d]pyrimidin-1-yl]methyl]pyrrolidin-1-yl]ethan-1-one], the half-maximal inhibitory concentration (IC50) fell in the range of 100 to 250 nM.

For the molecule `COc1cc2c(cc1Nc1ncc3cnn([C@@H]4CC[C@H]5CN(C(C)=O)[C@H]54)c3n1)CN(C)CC2` [Example 209, 1-((1S,4R,5R)-4-(6-((6-methoxy-2-methyl-1,2,3,4-tetrahydroisoquinolin-7-yl)amino)-1H-pyrazolo[3,4-d]pyrimidin-1-yl)-6-azabicyclo[3.2.0]heptan-6-yl)ethan-1-one], the concentration for half-maximal inhibition (IC50) is less than 100 nM.

In the case of `COc1nc2c(cc1Nc1ncc3cnn(C[C@@H]4C[C@H](F)CN4C(C)=O)c3n1)CN(C)CC2` [Example 212, 1-[(2S,4S)-4-fluoro-2-[[6-[(2-methoxy-6-methyl-7,8-dihydro-5H-1,6-naphthyridin-3-yl)amino]pyrazolo[3,4-d]pyrimidin-1-yl]methyl]pyrrolidin-1-yl]ethenone], the IC50 is less than 100 nM.

On to `COc1cc2c(cc1Nc1ncc3cnn(C[C@H]4CCCN4S(C)(=O)=O)c3n1)CN(C)CC2` [Example 118, (R)-6-methoxy-2-methyl-N-(1-((1-(methylsulfonyl)pyrrolidin-2-yl)methyl)-1H-pyrazolo[3,4-d]pyrimidin-6-yl)-1,2,3,4-tetrahydroisoquinolin-7-amine trifluoroacetate], for which the IC50 is less than 100 nM.

Regarding `COc1nc2c(cc1Nc1ncc3cnn(C[C@@H]4CCC(C)(C)N4C(C)=O)c3n1)CN(C)CC2` [Example 177, 1-[(5S)-5-[[6-[(2-methoxy-6-methyl-7,8-dihydro-5H-1,6-naphthyridin-3-yl)amino]pyrazolo[3,4-d]pyrimidin-1-yl]methyl]-2,2-dimethyl-pyrrolidin-1-yl]ethenone], the IC50 is less than 100 nM.

Consider `COc1cc2c(cc1Nc1ncc3cnn(C4CCC(CO)CC4)c3n1)CN(C)CC2` (stereo in doubt) [Example 64, cis-[4-[6-[(6-methoxy-2-methyl-3,4-dihydro-1H-isoquinolin-7-yl)amino]pyrazolo[3,4-d]pyrimidin-1-yl]cyclohexyl]methanol], for which the IC50 was less than 100 nM.

For `COc1cc2c(cc1Nc1ncc3cnn([C@H]4CC[C@H](O)CC4)c3n1)CN(CC(F)F)CC2` [Example 154, trans-4-(6-((2-(2,2-difluoroethyl)-6-methoxy-1,2,3,4-tetrahydroisoquinolin-7-yl)amino)-1H-pyrazolo[3,4-d]pyrimidin-1-yl)cyclohexan-1-ol], the IC50 is less than 100 nM.

For the molecule `COc1cc2c(cc1Nc1ncc3cnn(C[C@]4(C)CCCN4C(C)=O)c3n1)CN(C)CC2` [Example 135, (S)-1-(2-((6-((6-methoxy-2-methyl-1,2,3,4-tetrahydroisoquinolin-7-yl)amino)-1H-pyrazolo[3,4-d]pyrimidin-1-yl)methyl)-2-methylpyrrolidin-1-yl)ethan-1-one], the 50% inhibitory concentration (IC50) is less than 100 nM.
